# In patent US20060281787A1, “Bisindolyl maleimides useful for treating prostate cancer and akt-mediated diseases” (priority 2003, published 2006):
# Tests used:
# recombinant PDK-1 = target: T1, recombinant PDK-1 (Homo sapiens, UniProt O15530); test: PDK-1 kinase activity assay (PDK-tide phosphorylation, phosphocellulose filter plates); type: biochemical; settings: at Km for ATP and PDKtide saturation; read-out: inhibits PDK-1, EC50
# T1 construct: purchased UBI
# T1 sequence (O15530 1-556): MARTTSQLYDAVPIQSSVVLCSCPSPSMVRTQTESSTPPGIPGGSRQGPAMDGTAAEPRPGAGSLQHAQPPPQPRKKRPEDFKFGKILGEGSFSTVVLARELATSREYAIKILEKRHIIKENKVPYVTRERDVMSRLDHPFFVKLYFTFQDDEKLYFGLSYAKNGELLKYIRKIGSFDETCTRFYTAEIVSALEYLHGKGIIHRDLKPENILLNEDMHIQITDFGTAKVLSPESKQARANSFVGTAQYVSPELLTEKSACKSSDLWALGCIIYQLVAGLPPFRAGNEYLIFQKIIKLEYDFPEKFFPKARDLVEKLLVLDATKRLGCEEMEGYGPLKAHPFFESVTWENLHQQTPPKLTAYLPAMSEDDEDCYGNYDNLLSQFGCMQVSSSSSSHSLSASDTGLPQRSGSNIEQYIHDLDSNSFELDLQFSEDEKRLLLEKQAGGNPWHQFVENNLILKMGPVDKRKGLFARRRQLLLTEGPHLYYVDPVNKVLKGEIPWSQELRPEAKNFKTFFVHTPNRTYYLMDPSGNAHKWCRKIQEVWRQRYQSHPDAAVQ
# Description: (§1) The assay described measures the phosphorylation of the PDK1 consensus phosphorylation site PDK-tide peptide ([…]; cat # 14452, lot 23876U) by recombinant PDK-1 (UBI) at Km for ATP and PDKtide saturation using phosphocellulose membrane filter plates. Phosphorylation of the p70S6 kinase substrate by recombinant p70S6 kinase is also measured similarly.
# recombinant p70S6 kinase = recombinant p70S6 kinase (Homo sapiens, UniProt P23443); test: p70S6 kinase activity assay; type: biochemical; settings: read-out: inhibits p70S6kinase, EC50
# Sequence of recombinant p70S6 kinase (P23443 whole entry): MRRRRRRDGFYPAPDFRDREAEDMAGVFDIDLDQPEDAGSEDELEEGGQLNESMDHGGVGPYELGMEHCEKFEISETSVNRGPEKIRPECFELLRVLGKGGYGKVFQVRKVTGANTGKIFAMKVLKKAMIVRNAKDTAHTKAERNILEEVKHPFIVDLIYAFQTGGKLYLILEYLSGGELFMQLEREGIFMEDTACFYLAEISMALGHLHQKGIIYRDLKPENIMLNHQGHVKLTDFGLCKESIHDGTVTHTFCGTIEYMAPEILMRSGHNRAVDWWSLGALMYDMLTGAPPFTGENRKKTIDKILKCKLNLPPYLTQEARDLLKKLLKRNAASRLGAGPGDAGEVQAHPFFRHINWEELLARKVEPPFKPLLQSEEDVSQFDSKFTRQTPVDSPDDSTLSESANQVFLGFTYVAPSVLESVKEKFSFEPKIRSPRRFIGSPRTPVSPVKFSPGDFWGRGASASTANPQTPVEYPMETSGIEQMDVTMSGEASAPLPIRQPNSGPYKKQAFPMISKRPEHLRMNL
# Description: as §1
# [1] = test system: xenografts from the androgen-independent prostate carcinoma cell line PC3; test: In vivo tumor inhibition, PC3 xenografts; design: species or system athymic nude mice
# Text: (§2) Approximately 5×10^6 tumor cells are implanted subcutaneously into the flank of athymic nude mice (Harlan, Indianapolis, Ind.). Treatment of tumors begins when the tumors reach 100 mm^3 and continues for 21 consecutive days twice per day PO. Body weight and tumor size are monitored weekly or twice weekly.
# [2] = test system: human cancer cell lines derived from prostate (both androgen-dependent and independent cell lines); test: Apoptosis assay (Cell Death Detection ELISA), prostate; type: cell-based
# Text: (§3) Apoptosis assays were executed using the Cell Death Detection ELISAPIUS (Roche, 1774425) assay kit strictly following the enclosed protocol.
# [3] = test system: human cancer cell lines derived from lung; test: Apoptosis assay (Cell Death Detection ELISA), lung; type: cell-based
# Text: as §3
# [4] = test system: human cancer cell lines from non-Hodgkin's lymphoma; test: Apoptosis assay (Cell Death Detection ELISA), non-Hodgkin's lymphoma; type: cell-based
# Text: as §3
# [5] = test system: HCT116 colon cancer xenografts; test: In vivo tumor inhibition, HCT116 xenografts; design: species or system athymic nude mice
# Text: as §2
# 4EBP1 = test: Phosphorylation of 4EBP1 (western blot, AKT pathway readout); type: cell-based; settings: readout of AKT pathway activity
# Description: (§4) Protein lysates were prepared by incubation in RIPA Buffer (50 mM Tris-HCl, 150 mM NaCl, 1 mM EDTA, 1% NP40, 0.25% Sodium deoxycholate, 1 mM sodium fluoride, 1 mM sodium orthovanadate and Complete™ protease inhibitors (Roche Cat# 10019600) for one hour with rotation. The lysate was then centrifuged (10 minutes@ 10,000 rpm), supernatant harvested and protein concentrations were determined using the Bio-Rad DC Protein Assay (cat# 500-0122). Proteins were separated by SDS-PAGE using 4-20% tris-glycine gels (Invitrogen, cat# EC6028) and transferred to Hyper™-bond PVDF membrane (Amersham, cart# rpn303F). All primary antibodies were incubated overnight at 4° C. in 5% milk/1×PBS (Gibco, cat# 70011-044) solution. Horseradish peroxidase (HRP) linked secondary antibodies (Santa Cruz, cat# sc-2055, sc-2054) were incubated for a minimum of two hours prior to detection. Specific signal was determined by the Lumi-Imager™ and Lumi-Analyst software to define changes in protein expression and phosphorylation. […]
# ribosomal protein S6 = test: Phosphorylation of ribosomal protein S6 (western blot, AKT pathway readout); type: cell-based; settings: readout of AKT pathway activity
# Description: as §4
# GSK3β = test: Phosphorylation of GSK3β (western blot, AKT pathway readout); type: cell-based; settings: readout of AKT pathway activity
# Description: as §4
# [6] = test system: human cancer cell lines derived from colon; test: Apoptosis assay (Cell Death Detection ELISA), colon; type: cell-based
# Description: Both HCT116 colon carcinoma (cat#CCL-247) and U87MG glioblastoma (cat#HTB-14) cell lines were obtained from the American Type Culture Collection (ATCC). The standard growth media differed for each cell line but all were grown in 10% heat-inactivated FBS (Invitrogen cat# 10082-147), 37° C., 5% CO2 atmosphere and in a humidified chamber. Cell passage was completed one to two times per week using 0.25% trypsin/1 mM EDTA (Invitrogen, cat# 25200-056) solution maintaining cells in log phase growth. U87MG cells were cultured in DMEM media (Invitrogen cat# 11965-092), 1 mM non-essential amino acids (NEAA), and 0.1 mM Sodium Pyruvate. HCT116 cells were grown in McCoy's 5A Modified media (Invitrogen, cat# 16600-082), 0.15% sodium bicarbonate, 0.1 mM HEPES, 25 mM D-glucose and 0.1 mM sodium Pyruvate.
# as §3
# [7] = test system: GSK3β ser9 phosphorylation; test: GSK3β ser9 phosphorylation in xenograft tissues of treated mice; type: in vivo; settings: human tumor xenograft-bearing mice
# Description: as §4
# Approximately 5×10^6 tumor cells are implanted subcutaneously into the flank of athymic nude mice (Harlan, Indianapolis, Ind.). […] Body weight and tumor size are monitored weekly or twice weekly.
# [8] = test system: U87MG glioblastoma xenografts; test: In vivo tumor inhibition, U87MG xenografts; design: species or system athymic nude mice
# Text: as §2
# [9] = test system: forkhead transcription factor AFX; test: Phosphorylation of AFX (western blot, AKT pathway readout); type: cell-based; settings: readout of AKT pathway activity
# Description: as §4
structure (smiles),measurement,setting,value
Cn1cc(C2=C(c3cn(C4CCNCC4)c4ccccc34)C(=O)NC2=O)c2ccccc21 [Compound 1],EC50,recombinant PDK-1,370 nM
same,EC50,recombinant p70S6 kinase,< 500 nM
same,anti-tumor efficacy,[1],has been demonstrated
same,induction of apoptosis,[2],induces apoptosis
same,induction of apoptosis,[3],induces apoptosis
same,induction of apoptosis,[4],induces apoptosis
same,anti-tumor efficacy,[5],has been demonstrated
same,phosphorylation of 4EBP1,4EBP1,suppresses phosphorylation
same,phosphorylation of ribosomal protein S6,ribosomal protein S6,suppresses phosphorylation
same,phosphorylation of GSK3β,GSK3β,suppresses phosphorylation
same,induction of apoptosis,[6],induces apoptosis
same,GSK3β ser9 phosphorylation in xenograft tissues,[7]; including an androgen-independent prostate carcinoma cell line,suppresses GSK3β ser9 phosphorylation
same,duration of suppression of GSK3β ser9 phosphorylation post dosing,[7]; post dosing,up to 8 hours
same,anti-tumor efficacy,[8],has been demonstrated
same,phosphorylation of the forkhead transcription factor AFX,[9],suppresses phosphorylation
